Data as given in patent US20240174618A1, “SUBSTITUTED (2-HETEROARYLOXYPHENYL)SULFONATES, SALTS THEREOF AND THEIR USE AS HERBICIDAL AGENTS” (Bayer Aktiengesellschaft, priority 2021, published 2024).

Legend:
Type in all cases: in vivo
[1] = system: Echinochloa crus-galli (ECHCG); experiment: A. Herbicidal pre-emergence efficacy, ECHCG; conditions: scored visually after about 3 weeks vs untreated controls
Procedure, shortened: (§1)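 Applied before emergence onto covering soil at rates of 1280 g/ha or less, using 600 L/ha spray water with 0.5% additive. Scoring: visual % efficacy after ~3 weeks, greenhouse.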

Poa annua (POAAN) = experiment: A. Herbicidal pre-emergence efficacy, POAAN
Procedure, shortened: as §1

[2] = system: Abutilon theophrasti (ABUTH); experiment: B. Herbicidal post-emergence efficacy, ABUTH; conditions: rated visually after about 3 weeks
Procedure, shortened: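 Weeds grown in sandy loam in greenhouse and sprayed at the one-leaf stage, 2–3 weeks after sowing, with WP or EC formulations plus 0.5% additive at 600 L/ha water. Injury rated visually versus untreated controls after about 3 weeks (100% = dead, 0% = like control); rates up to 1280 g/ha.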

[3] = system: Amaranthus retroflexus (AMARE); experiment: C. Herbicidal pre-emergence efficacy, AMARE; conditions: scored after about 3 weeks
Procedure, shortened: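 Pre-emergence test: formulated compounds sprayed as aqueous suspension or emulsion with 0.5% additive at 600 l/ha onto soil covering sown seeds, at rates corresponding to 320 g/ha or less. After about 3 weeks in greenhouse, efficacy scored visually as percent versus untreated controls (100% = plants dead).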

Veronica persica (VERPE) = experiment: E. Herbicidal post-emergence efficacy, VERPE
Procedure, shortened: (§2)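 Compounds applied at 320 g/ha or less as a foliar spray (600 l/ha, 0.5% additive) to one-leaf-stage greenhouse plants grown in sandy loam. Damage is visually scored in percent relative to untreated plants after about 3 weeks.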

[4] = system: Abutilon theophrasti (ABUTH); experiment: E. Herbicidal post-emergence efficacy, ABUTH
Procedure, shortened: as §2

Viola tricolor (VIOTR) = experiment: E. Herbicidal post-emergence efficacy, VIOTR
Procedure, shortened: as §2

O=S(=O)(CCCCl)Oc1cccc(F)c1Oc1ncc(Cl)cn1 [Example I-13]
Pre-emergence efficacy against ECHCG ([1]; 1280 g/ha): 100% | Pre-emergence efficacy against POAAN (Poa annua (POAAN); dosage 320 g/ha): 90% | Pre-emergence efficacy against POAAN (Poa annua (POAAN); dosage 1280 g/ha): 100% | Post-emergence efficacy against ABUTH in % ([2]; 1280 g/ha): 90% | Pre-emergence efficacy against AMARE ([3]; 320 g/ha): 100% | Post-emergence efficacy against VERPE in % (Veronica persica (VERPE); application rate 320 g/ha): 90%

CCS(=O)(=O)Oc1ccccc1Oc1ncc(Cl)cn1 [Example I-16]
Pre-emergence efficacy against ECHCG ([1]; 320 g/ha): 90% | Pre-emergence efficacy against ECHCG ([1]; 1280 g/ha): 100% | Pre-emergence efficacy against POAAN (Poa annua (POAAN); dosage 320 g/ha): 100% | Pre-emergence efficacy against POAAN (Poa annua (POAAN); dosage 1280 g/ha): 100% | Post-emergence efficacy against ABUTH in % ([2]; 320 g/ha): 90% | Post-emergence efficacy against ABUTH in % ([2]; 1280 g/ha): 100%

CC(C)CCS(=O)(=O)Oc1ccccc1Oc1ncc(Cl)cn1 [Example I-25]
Pre-emergence efficacy against ECHCG ([1]; 320 g/ha): 100% | Pre-emergence efficacy against ECHCG ([1]; 1280 g/ha): 100% | Pre-emergence efficacy against POAAN (Poa annua (POAAN); dosage 320 g/ha): 100% | Pre-emergence efficacy against POAAN (Poa annua (POAAN); dosage 1280 g/ha): 100% | Post-emergence efficacy against ABUTH in % ([2]; 320 g/ha): 90% | Post-emergence efficacy against ABUTH in % ([2]; 1280 g/ha): 100% | Pre-emergence efficacy against AMARE ([3]; 80 g/ha): 100% | Pre-emergence efficacy against AMARE ([3]; 320 g/ha): 100% | Post-emergence efficacy against ABUTH in % ([4]; application rate 320 g/ha): 80% | Post-emergence efficacy against VERPE in % (Veronica persica (VERPE); application rate 80 g/ha): 90% | Post-emergence efficacy against VERPE in % (Veronica persica (VERPE); application rate 320 g/ha): 100%

O=S(=O)(CCCC(F)(F)F)Oc1c(Br)cccc1Oc1ncc(Cl)cn1 [Example I-30]
Pre-emergence efficacy against ECHCG ([1]; 320 g/ha): 100% | Pre-emergence efficacy against ECHCG ([1]; 1280 g/ha): 100% | Pre-emergence efficacy against POAAN (Poa annua (POAAN); dosage 80 g/ha): 90% | Pre-emergence efficacy against POAAN (Poa annua (POAAN); dosage 320 g/ha): 100% | Pre-emergence efficacy against POAAN (Poa annua (POAAN); dosage 1280 g/ha): 100% | Post-emergence efficacy against ABUTH in % ([2]; 80 g/ha): 90% | Post-emergence efficacy against ABUTH in % ([2]; 320 g/ha): 90% | Post-emergence efficacy against ABUTH in % ([2]; 1280 g/ha): 100%

O=S(=O)(CCCC(F)(F)F)Oc1c(Cl)cccc1Oc1ncc(Br)cn1 [Example I-34]
Pre-emergence efficacy against POAAN (Poa annua (POAAN); dosage 320 g/ha): 90% | Pre-emergence efficacy against POAAN (Poa annua (POAAN); dosage 1280 g/ha): 90% | Post-emergence efficacy against ABUTH in % ([2]; 80 g/ha): 90% | Post-emergence efficacy against ABUTH in % ([2]; 320 g/ha): 100% | Post-emergence efficacy against ABUTH in % ([2]; 1280 g/ha): 100% | Pre-emergence efficacy against AMARE ([3]; 80 g/ha): 100% | Pre-emergence efficacy against AMARE ([3]; 320 g/ha): 100% | Post-emergence efficacy against ABUTH in % ([4]; application rate 80 g/ha): 80% | Post-emergence efficacy against ABUTH in % ([4]; application rate 320 g/ha): 80% | Post-emergence efficacy against VERPE in % (Veronica persica (VERPE); application rate 80 g/ha): 100% | Post-emergence efficacy against VERPE in % (Veronica persica (VERPE); application rate 320 g/ha): 100% | Post-emergence efficacy against VIOTR in % (Viola tricolor (VIOTR); application rate 80 g/ha): 100% | Post-emergence efficacy against VIOTR in % (Viola tricolor (VIOTR); application rate 320 g/ha): 100%

C=CCS(=O)(=O)Oc1ccccc1Oc1ncc(Cl)cn1 [Example I-36]
Pre-emergence efficacy against ECHCG ([1]; 1280 g/ha): 100% | Pre-emergence efficacy against POAAN (Poa annua (POAAN); dosage 1280 g/ha): 90% | Pre-emergence efficacy against AMARE ([3]; 320 g/ha): 100% | Post-emergence efficacy against VERPE in % (Veronica persica (VERPE); application rate 80 g/ha): 80% | Post-emergence efficacy against VERPE in % (Veronica persica (VERPE); application rate 320 g/ha): 100%

C=CCCS(=O)(=O)Oc1c(F)cccc1Oc1ncc(Cl)cn1 [Example I-50]
Pre-emergence efficacy against ECHCG ([1]; 320 g/ha): 90% | Pre-emergence efficacy against ECHCG ([1]; 1280 g/ha): 100% | Pre-emergence efficacy against POAAN (Poa annua (POAAN); dosage 80 g/ha): 90% | Pre-emergence efficacy against POAAN (Poa annua (POAAN); dosage 320 g/ha): 90% | Pre-emergence efficacy against POAAN (Poa annua (POAAN); dosage 1280 g/ha): 100% | Post-emergence efficacy against ABUTH in % ([2]; 320 g/ha): 90% | Post-emergence efficacy against ABUTH in % ([2]; 1280 g/ha): 90% | Pre-emergence efficacy against AMARE ([3]; 80 g/ha): 100% | Pre-emergence efficacy against AMARE ([3]; 320 g/ha): 100% | Post-emergence efficacy against VERPE in % (Veronica persica (VERPE); application rate 80 g/ha): 90% | Post-emergence efficacy against VERPE in % (Veronica persica (VERPE); application rate 320 g/ha): 100% | Post-emergence efficacy against VIOTR in % (Viola tricolor (VIOTR); application rate 80 g/ha): 90% | Post-emergence efficacy against VIOTR in % (Viola tricolor (VIOTR); application rate 320 g/ha): 100%

COCCS(=O)(=O)Oc1c(F)cccc1Oc1ncc(Cl)cn1 [Example I-52]
Pre-emergence efficacy against ECHCG ([1]; 320 g/ha): 90% | Pre-emergence efficacy against ECHCG ([1]; 1280 g/ha): 90% | Pre-emergence efficacy against POAAN (Poa annua (POAAN); dosage 320 g/ha): 90% | Pre-emergence efficacy against POAAN (Poa annua (POAAN); dosage 1280 g/ha): 100% | Post-emergence efficacy against ABUTH in % ([2]; 1280 g/ha): 90% | Pre-emergence efficacy against AMARE ([3]; 80 g/ha): 100% | Pre-emergence efficacy against AMARE ([3]; 320 g/ha): 100% | Post-emergence efficacy against VERPE in % (Veronica persica (VERPE); application rate 80 g/ha): 100% | Post-emergence efficacy against VERPE in % (Veronica persica (VERPE); application rate 320 g/ha): 100% | Post-emergence efficacy against VIOTR in % (Viola tricolor (VIOTR); application rate 320 g/ha): 80%

O=S(=O)(CCC(F)=C(F)F)Oc1c(F)cccc1Oc1ncc(Cl)cn1 [Example I-70]
Pre-emergence efficacy against AMARE ([3]; 80 g/ha): 100% | Pre-emergence efficacy against AMARE ([3]; 320 g/ha): 100% | Post-emergence efficacy against ABUTH in % ([4]; application rate 80 g/ha): 80% | Post-emergence efficacy against ABUTH in % ([4]; application rate 320 g/ha): 90% | Post-emergence efficacy against VERPE in % (Veronica persica (VERPE); application rate 80 g/ha): 100% | Post-emergence efficacy against VERPE in % (Veronica persica (VERPE); application rate 320 g/ha): 100% | Post-emergence efficacy against VIOTR in % (Viola tricolor (VIOTR); application rate 80 g/ha): 100% | Post-emergence efficacy against VIOTR in % (Viola tricolor (VIOTR); application rate 320 g/ha): 100%

N#Cc1cccc(Oc2ncc(Cl)cn2)c1OS(=O)(=O)CCCC(F)(F)F [Example I-81]
Pre-emergence efficacy against AMARE ([3]; 80 g/ha): 100% | Pre-emergence efficacy against AMARE ([3]; 320 g/ha): 100% | Post-emergence efficacy against ABUTH in % ([4]; application rate 80 g/ha): 80% | Post-emergence efficacy against ABUTH in % ([4]; application rate 320 g/ha): 90% | Post-emergence efficacy against VERPE in % (Veronica persica (VERPE); application rate 80 g/ha): 100% | Post-emergence efficacy against VERPE in % (Veronica persica (VERPE); application rate 320 g/ha): 100% | Post-emergence efficacy against VIOTR in % (Viola tricolor (VIOTR); application rate 80 g/ha): 100% | Post-emergence efficacy against VIOTR in % (Viola tricolor (VIOTR); application rate 320 g/ha): 100%
